Data: patent US20250295583A1, “INHALED HEDGEHOG INHIBITORS” (WBX PHARMA, INC., priority 2024, published 2025)
Values joined by “and” are separate entries in the source; they are usually repeats but may differ in a detail not shown here. Equal entries are not always repeated.

Legend:
[1] = Estimate of systemic exposure after inhaled dosing versus oral dose; set-up: species or system human
Description: This would be about 6 half-lives. Depending on the half-life in the epithelial lining fluid, one to six inhalations a day would provide adequate inhibition of hedgehog receptors. At the highest dose frequency (6 inhalations/day), the total delivered dose would approximate 3.6 mg.

[2] = cited from earlier work
[3] = cited from earlier work; remark: listed apart in the source
[4] = test system: subjects with mild to moderate IPF; details: cited from earlier work
[5] = Estimate of epithelial lining fluid (ELF) concentration after inhaled delivery, from pirfenidone data; set-up: species or system human; details: for predicted ELF concentration adjusted for 200 μg delivery: inhaled dry powder, 200 μg delivered; for predicted ELF molar concentration if 45 mg delivered: inhaled, extrapolated from pirfenidone data
Description: The physical delivery of any drug by the inhalation route may be estimated by data generated in the delivery of inhaled pirfenidone.
Again, since delivery is just a physical process, one can estimate ELF concentrations for 200 μg of taladegib delivered as noted above based on pirfenidone data.

[6] = type: physicochemical
Description: Four dry powder formulations were developed using spray drying with two being acceptable for human use. […] The selected bulking agents were mannitol or trehalose with dispersibility enhancer: L-leucine (˜0.55 wt % solubility limit in 50:50 EtOH: water). Two mannitol formulations and two trehalose formulations with different amounts of L-leucine 10% and 26% were made using a BLD-35 spray dryer. The tested dose was 10 mg of the formulation in a Berry RSO1 high resistance inhaler.

[7] = test system: IPF patients; details: 21 IPF patients, cited from earlier work; for patients who discontinued the drug: combination trial of vismodegib plus pirfenidone
[8] = test system: IPF; details: given orally alone as a monotherapy; cited from earlier work
[9] = cited from earlier work; remark: listed apart in the source
[10] = Published pharmacokinetics of oral vismodegib; type: in vivo, human; details: once daily oral therapy
Source text: Only unbound drug can freely cross the alveolar epithelial barrier.

[11] = 150 mg daily oral dose, cited from earlier work
[12] = Accumulation factor calculation at steady state; details: half-life 3 days, dosing interval 1 day, first-order kinetics
Source text: This calculation assumes the API is being administered in a clinically effective formulation as disclosed herein, at regular intervals, and that the pharmacokinetics of the candidate compound follow first-order kinetics where the rate of drug elimination is proportional to its concentration. To calculate the multiple of the initial drug concentration at steady state (known as the “accumulation factor”), the formula:
Substitute into the formula: With τ=1 day: AF=1/(1−e^(−0.231*1))≈1/(1−e^(−0.231)).
Evaluate the exponential: e^(−0.231)≈0.794.

## CN(C(=O)c1ccc(F)cc1C(F)(F)F)C1CCN(c2nnc(-c3ccnn3C)c3ccccc23)CC1 [taladegib, Taladegib]
[1]; six inhalations a day, total 3.6 mg
  systemic exposure/absorption relative to the oral dose: less than 10%
[2]
  plasma protein bound: 95%
[3]; 200 mg daily oral dose
  mean concentration at steady state: about 0.8 μmol/L
[3]; 200 mg oral dose
  absorption: approximately 30%
[4]; oral taladegib group
  alopecia: 52%
  dysgeusia: 57%
  muscle spasms: 43%
[4]; oral taladegib versus slight increase in placebo group
  lung fibrosis by high resolution CT scan: decreased lung fibrosis
[4]; oral taladegib, at 12 weeks, on average, placebo 1.3% loss (p=0.035)
  improvement in FVC: 1.9%
[5]; 200 μg inhaled delivered dose
  ELF concentration versus that achieved by 200 mg oral dose of taladegib (unbound): ≈ 29 fold and > 29 fold
[5]
  predicted ELF concentration adjusted for 200 μg delivery: 1.16 µmol/L
  predicted ELF molar concentration if 45 mg delivered: 264 µmol/L

## CC(C)C[C@H](N)C(=O)O [L-leucine]
[6]
  solubility limit in 50:50 EtOH: water: ~0.55 wt %

## Cc1ccc(=O)n(-c2ccccc2)c1 [pirfenidone]
[7]
  patients who discontinued the drug: 33.3%
[8]
  slowing of the progression of the disease: about 50%
[9]; 100 mg dose in the nebulizer, 24 hour urine analysis
  amount delivered to the lung: 45 mg
[9]; aerosolized, normal volunteers, average
  epithelial lining fluid concentration: 135 µg/mL

## COC(=O)c1ccc2c(c1)NC(=O)/C2=C(\Nc1ccc(N(C)C(=O)CN2CCN(C)CC2)cc1)c1ccccc1 [nintedanib]
[8]
  slowing of the progression of the disease: about 50%

## CS(=O)(=O)c1ccc(C(=O)Nc2ccc(Cl)c(-c3ccccn3)c2)c(Cl)c1 [vismodegib, Vismodegib]
[1]; six administrations a day of a 30 mg capsule (delivered dose 600 μg each)
  total systemic exposure: 3.6 mg
[7]
  patients who discontinued the drug: 42.9%
[7]; vismodegib 150 mg daily plus pirfenidone 801 mg three times daily, 24 weeks, on average
  lung function and shortness of breath: improved
[7]; vismodegib 150 mg daily plus pirfenidone, 24 weeks
  patients reporting at least one treatment-emergent adverse event: all patients
[10]
  plasma concentration nadir, of the peak: about 80%
[2]
  plasma protein bound: 98%
[2]; to albumin and alpha-1 acid glycoprotein
  plasma protein binding, in words: highly protein-bound
[11]; steady state
  mean unbound concentration: 0.109 ± 0.058 µmol/L
[11]
  peak plasma concentration at steady state: 22.6 ± 10.8 µmol/L
[6]; 50:50 EtOH: water (wt/wt)
  amount dissolved in 50:50 EtOH: water (wt/wt) solution: 4%
[12]
  accumulation factor, steady state concentration versus after the first dose: about 4.85 times
[5]
  predicted ELF concentration adjusted for 200 μg delivery: 1.71 µmol/L
  predicted ELF molar concentration if 45 mg delivered: 388 µmol/L
